Experimental data: patent publication US8354430B2, “Monohydrochloride salt of 1-[3-[3-(4-chlorophenyl) propoxy]propyl]-piperidine” (priority 2005, dated 2013)

Key:
mice = assay: Natural forgetting, two-trial object recognition; assay type: in vivo, mouse; details: tacrine 0.25 mg/kg, i.p. after T1
Description: Methods: Mice were submitted to the first trial (T1), placed in the box containing two identical objects and the time required by each animal to complete 8 sec of object exploration was determined. Exploration was considered to be directing the nose at a distance closer than 2 cm to the object and/or touching the object. Immediately after the first trial mice were treated with the vehicle or tacrine (0.25 mg/kg, i.p.). […] Mice were placed in the box for 5 min and exploration of each object together with motor activity was determined. The following parameters were measured: […]

[1] = Solubility of salts in water at room temperature, pH 4.5 and pH 7.4
[2] = Stability to oxidation conditions (melting points under nitrogen and oxygen atmosphere); assay type: physicochemical
Description: Melting points of the above salts were also determined under nitrogen and oxygen atmosphere, in order to verify their stability to oxidation conditions.

[3] = Aqueous solubility at 23° C.; assay type: physicochemical; details: water
Excerpt: The use of 1-[3-[3-(4-chlorophenyl)propoxy]propyl]-piperidine as the free base is limited because of its oily nature.

Compound | natural forgetting (mice) | Solubility (% w/v) pH 4.5 ([1]; pH 4.5) | Solubility (% w/v) pH 7.4 ([1]; pH 7.4) | Solubility (% w/v) Water room T ([1]; water at room temperature) | Melting point, N2 atmosphere (stability to oxidation conditions) [2] | Melting point, O2 atmosphere (stability to oxidation conditions) [2] | solubility [3] | solubility (physchem; pH 4.5, aqueous buffer) | solubility (physchem; pH 7.4, aqueous buffer) | solubility (physchem; water)
Nc1c2c(nc3ccccc13)CCCC2 [tacrine, reference compound] | significantly reduced | – | – | – | – | – | – | – | – | –
Clc1ccc(CCCOCCCN2CCCCC2)cc1 [Hydrogen succinate] | – | >100 % w/v | >100 % w/v | >100 % w/v | 63.21 °C | 63.46 °C | – | – | – | –
Clc1ccc(CCCOCCCN2CCCCC2)cc1.O=C(O)C(=O)O [Hydrogen oxalate, 1-[3-[3-(4-chlorophenyl)propoxy]propyl]-piperidine oxalate, reference compound] | – | – | – | – | 149.16 °C | 149.28 °C | 25 mg/mL | 10 to 30 mg/mL | 30 to 100 mg/mL | 10 to 30 mg/mL
Hydrogen maleate | – | – | – | – | 90.85 °C | 90.74 °C | – | – | – | –
